Like-named read-outs stand apart in the source and are kept apart here.

Consider 25 compounds from patent publication EP2951180B1, “2,6,7,8 SUBSTITUTED PURINES AS HDM2 INHIBITORS” (Merck Sharp & Dohme Corp., priority 2013, dated 2014).

The assay addresses T1, HDM2 (Homo sapiens, UniProt Q00987).
T1 construct: Thioredoxin (N); made in house; host or cells: E. coli strain BL21(DE3)Rosetta
Put plainly: HDM2 FRET assay (inhibition of binding of FITC labeled p53-pocket peptide to HDM2). To be noted: for IC50: read-out: FRET IC50. The essentials:
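Final: 0.5 nM His-HDM2, 3 nM FITC peptide, 0.25 nM Tb anti-His Ab; PBS, 0.01% BSA, 0.01% Tween-20; 0.1% DMSO.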

[1] abbreviates: 0.5 nM HDM2 (residues 17 to 125), 3nM peptide, two hour incubation at room temperature.

T1 sequence (Q00987 17-125): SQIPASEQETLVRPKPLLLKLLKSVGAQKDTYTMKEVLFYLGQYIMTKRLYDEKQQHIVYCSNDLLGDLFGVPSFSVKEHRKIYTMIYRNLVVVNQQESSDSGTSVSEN

Turning to `C[C@@H](Nc1nc(C(=O)O)nc2nc(N3CCCC34CCc3ccccc34)n(Cc3ccc(C(F)(F)F)cc3)c12)C1CCC1` (stereo partly drawn) [Example 9.74, 6-{[(1R)-1-cyclobutylethyl]amino}-8-(2,3-dihydro-1'H-spiro[indene-1,2'-pyrrolidin]-1'-yl)-7-[4-(trifluoromethyl)benzyl]-7H-purine-2-carboxylic acid], the IC50 (Table 9) worked out at 12.9 nM.

Take `C[C@@H](Nc1nc(C(=O)O)nc2nc(-c3nccs3)n(C[C@H]3CC[C@H](C)CC3)c12)C1CCC1` [Example 15.11, 6-(((R)-1-cyclobutylethyl)amino)-7-((trans-4-methylcyclohexyl)methyl)-8-(thiazol-2-yl)-7H-purine-2-carboxylic acid]: the IC50 under setting [1] came to 2.45 nM.

Take `CC(C)c1ccnc(-c2nc3nc(-c4noc(=O)[nH]4)nc(N[C@H](C)C4CCC4)c3n2C[C@H]2CC[C@H](C)CC2)c1F` [Example 15.7, 3-(6-((R)-1-cyclobutylethylamino)-8-(3-fluoro-4-isopropylpyridin-2-yl)-7-((trans-4-methylcyclohexyl)methyl)-7H-purin-2-yl)-1,2,4-oxadiazol-5(4H)-one]: the concentration for half-maximal inhibition (IC50) under setting [1] is 5.13 nM.

`C[C@@H](Nc1nc(C(=O)O)nc2nc(N3CCCCC3C3CCCCC3)n(C[C@H]3CC[C@H](C)CC3)c12)C1CCC1` (stereo partly drawn) [Example 11.4, 6-(((R)-1-cyclobutylethyl)amino)-8-(2-cyclohexylpiperidin-1-yl)-7-((trans-4-methylcyclohexyl)methyl)-7H-purine-2-carboxylic acid]: the concentration for half-maximal inhibition (IC50) (Table 11) amounted to 1.56 nM.

As for `C[C@@H](Nc1nc(-c2noc(=O)[nH]2)nc2nc(N(C)C3CCCCC3)n(Cc3ccc(C(F)(F)F)cc3)c12)C1CCC1` [Example 9.87, 3-(6-{[(1R)-1-cyclobutylethyl]amino}-8-[cyclohexyl(methyl)amino]-7-[4-(trifluoromethyl)benzyl]-7H-purin-2-yl)-1,2,4-oxadiazol-5(4H)-one], the IC50 (Table 9) worked out at 23.4 nM.

`C[C@H]1OCCN(c2nc3nc(-c4n[nH]c(=O)o4)nc(-c4cncc(Cl)c4)c3n2C[C@H]2CC[C@H](C)CC2)[C@@H]1c1ccccc1` [Example 16.133, 5-{6-(5-chloropyridin-3-yl)-7-[(trans-4-methylcyclohexyl)methyl]-8-[(2R,3R)-2-methyl-3-phenylmorpholin-4-yl]-7H -purin-2-yl}-1,3,4-oxadiazol-2(3H)-one]: under setting [1], the half-maximal inhibitory concentration (IC50) was found to be 0.569 nM.

For `CC(O)(c1nc2nc(-c3noc(=O)[nH]3)nc(-c3cccc(Cl)c3)c2n1C[C@H]1CC[C@H](C)CC1)C1CCOCC1` (mixture of isomers) [Example 23.4, 3-{6-(3-chlorophenyl)-8-[1-hydroxy-1-(tetrahydro-2H-pyran-4-yl)ethyl]-7-[(trans-4-methylcyclohexyl)methyl]-7H-purin-2-yl}-1,2,4-oxadiazol-5(4H)-one], the IC50 (Table 23) came out at 19.2 nM.

As to `CCCN(C)c1nc2nc(-c3noc(=O)[nH]3)nc(N[C@H](C)C3CCC3)c2n1C[C@H]1CC[C@H](C)CC1` [Example 11.44, 3-(6-{[(1R)-1-cyclobutylethyl]amino}-7-[(trans-4-methylcyclohexyl)methyl]-8-[methyl(propyl)amino]-7H-purin-2-yl)-1,2,4-oxadiazol-5(2H)-one], the IC50 (Table 11) turned out to be 9.97 nM.

In the case of `C[C@@H](Nc1nc(-c2noc(=O)[nH]2)nc2nc(N3CCCOCC3)n(C[C@H]3CC[C@H](C)CC3)c12)C1CCC1` [Example 11.105, 3-[6-{[(1R)-1-cyclobutylethyl]amino}-7-[(trans-4-methylcyclohexyl)methyl]-8-(1,4-oxazepan-4-yl)-7H-purin-2-yl]-1,2,4-oxadiazol-5(2H)-one], the 50% inhibitory concentration (IC50) (Table 11) is 42.6 nM.

For the compound `C[C@@H](Nc1nc(-c2noc(=O)[nH]2)nc2nc(N(C)CC3(C)CCN(C)C3)n(Cc3ccc(C(F)(F)F)cc3)c12)C1CCC1` (stereo partly drawn) [Example 9.98, 3-(6-{[(1R)-1-cyclobutylethyl]amino}-8-{[(1,3-dimethylpyrrolidin-3-yl)methyl] (methyl)amino}-7-[4-(trifluoromethyl)benzyl]-7H-purin-2-yl)-1,2,4-oxadiazol-5(4H)-one], the IC50 (Table 9) was 71 nM.

With `CCCC1CCCN1c1nc(C(=O)O)nc2nc(-c3cccc(C)c3)n(Cc3ccc(C(F)(F)F)cc3)c12` (stereo not shown) [Example 6.86, 8-(3-methylphenyl)-6-(2-propylpyrrolidin-1-yl)-7-[4-(trifluoromethyl)benzyl]-7H-purine-2-carboxylic acid], the IC50 (Table 6) was determined as 754 nM.

As to `C[C@@H](Nc1nc(C(=O)O)nc2nc(N3CCOC[C@@H]3C)n(Cc3ccc(C(F)(F)F)cc3)c12)C1CCC1` [Example 9.32, 6-{[(1R)-1-cyclobutylethyl]amino}-8-[(3S)-3-methylmorpholin-4-yl]-7-[4-(trifluoromethyl)benzyl]-7H-purine-2-carboxylic acid], for the setting “Table 9”, the IC50 was 15.2 nM.

With `C[C@@H](Nc1nc(C(=O)O)nc2nc(C3=C(c4ccccc4)CCCC3)n(C[C@H]3CC[C@H](C)CC3)c12)C1CCC1` [Example 21.18, 6-{[(1R)-1-cyclobutylethyl]amino}-7-[(trans-4-methylcyclohexyl)methyl]-8-(2-phenylcyclohex-1-en-1-yl)-7H-purine-2-carboxylic acid], the IC50 (Table 21) was determined as 6.5 nM.

As for `CCC1CCCN1c1nc(C(=O)O)nc2nc(-c3cccc(C)c3)n(Cc3ccc(C(F)(F)F)cc3)c12` (stereo not shown) [Example 6.78, 6-(2-ethylpyrrolidin-1-yl)-8-(3-methylphenyl)-7-[4-(trifluoromethyl)benzyl]-7H-purine-2-carboxylic acid], the inhibition at 1 µM (read-out: inh. at 1000 nM (FRET)) was 33%.

On to `C[C@H]1CC[C@H](Cn2c(N3CCOC[C@H]3c3ccccn3)nc3nc(-c4noc(=O)[nH]4)nc(-c4cccc(Cl)c4)c32)CC1` [Example 16.98, 3-{6-(3-chlorophenyl)-7-[(trans-4-methylcyclohexyl)methyl]-8-[(3R)-3-pyridin-2-ylmorpholin-4-yl]-7H-purin-2-yl}-1,2,4-oxadiazol-5(4H)-one], for which the IC50 under setting [1] is 1.61 nM.

On to `C[C@@H](Nc1nc(C(=O)O)nc2nc(N3CCCCC3c3cccc(F)c3)n(Cc3ccc(C(F)(F)F)cc3)c12)C1CCC1` (stereo partly drawn) [Example 9.116, 6-{[(1R)-1-cyclobutylethyl]amino}-8-[2-(3-fluorophenyl)piperidin-1-yl]-7-[4-(trifluoromethyl)benzyl]-7H-purine-2-carboxylic acid], for which the 50% inhibitory concentration (IC50) (Table 9) was 14 nM.

`CC(c1ccccc1)c1nc2nc(-c3noc(=O)[nH]3)nc(N[C@H](C)C3CCC3)c2n1C[C@H]1CC[C@H](C)CC1` (single isomer, unassigned) [Example 21.15]: where the note is “Table 21”, the IC50 was 2.04 nM.

Consider `CC(C)C1CCCCN1c1nc2nc(C(=O)O)nc(N[C@H](C)C3CCC3)c2n1C[C@H]1CC[C@H](C)CC1` (stereo partly drawn) [Example 11.54, 6-{[(1R)-1-cyclobutylethyl]amino}-7-[(trans-4-methylcyclohexyl)methyl]-8-[2-(1-methylethyl)piperidin-1-yl] -7H-purine-2-carboxylic acid], for which the IC50 (Table 11) was determined as 3.31 nM.

Consider `C[C@H]1CC[C@H](Cn2c(N3CCOC[C@H]3c3ccccc3)nc3nc(-c4noc(=O)[nH]4)nc(C4CCOCC4)c32)CC1` [Example 16.167, 3-{7-[(trans-4-methylcyclohexyl)methyl]-8-[(3R)-3-phenylmorpholin-4-yl]-6-(tetrahydro-2H-pyran-4-yl)-7H-purin-2-yl}-1,2,4-oxadiazol-5(4H)-one], for which the IC50 under setting [1] worked out at 46.6 nM.

In the case of `C[C@H]1CC[C@H](Cn2c(C3CC3)nc3nc(-c4noc(=O)[nH]4)nc(-c4cccc(Cl)c4)c32)CC1` [Example 24.2, 3-{6-(3-chlorophenyl)-8-cyclopropyl-7-[(trans-4-methylcyclohexyl)methyl]-7H-purin-2-yl}-1,2,4-oxadiazol-5(4H)-one], under setting [1], the IC50 amounted to 41.7 nM.

As to `COC[C@@H]1COCCN1c1nc2nc(-c3noc(=O)[nH]3)nc(-c3cccc(Cl)c3)c2n1C[C@H]1CC[C@H](C)CC1` [Example 16.59, 3-{6-(3-chlorophenyl)-8-[(3R)-3-(methoxymethyl)mor pholin-4-yl]-7-[(trans-4-methylcyclohexyl)methyl]-7H-purin-2-yl}-1,2,4-oxadiazol-5(4H)-one], under setting [1], the IC50 was determined as 19 nM.

As to `CC[C@H]1CC[C@H](Cn2c(N3CCOC[C@H]3c3ccccc3)nc3nc(C(=O)O)nc(N[C@H](C)C4CCC4)c32)CC1` [Example 18.21, 6-{[(1R)-1-cyclobutylethyl]amino}-7-[(trans-4-ethylcyclohexyl)methyl]-8-[(3R)-3-phenylmorpholin-4-yl]-7H-purine-2-carboxylic acid], where the note is “Table 18”, the IC50 was 0.548 nM.

Consider `CC(c1nc2nc(-c3noc(=O)[nH]3)nc(-c3cccc(Cl)c3)c2n1C[C@H]1CC[C@H](C)CC1)C1CCOCC1` (relative stereo) [Example 24.3, 3-{6-(3-chlorophenyl)-7-[(trans-4-methylcyclohexyl)methyl]-8-[1-(tetrahydro-2H-pyran-4-yl)ethyl]-7H-purin-2-yl}-1,2,4-oxadiazol-5(4H)-one], for which the IC50 under setting [1] stood at 14.2 nM.

For the compound `C[C@@H](Nc1nc(-c2noc(=O)[nH]2)nc2nc(C3=CCCC3)n(C[C@H]3CC[C@H](C)CC3)c12)C1CCC1` [Example 21.32, 3-(6-{[(1R)-1-cyclobutylethyl]amino}-8-cyclopent-1-en-1-yl-7-[(trans-4-methylcyclohexyl)methyl]-7H-purin-2-yl)-1,2,4-oxadiazol-5(4H)-one], the IC50 (Table 21) came out at 4.87 nM.

Take `C[C@@H](Nc1nc(C(=O)O)nc2nc(C3CCCCN3C)n(Cc3ccc(C(F)(F)F)cc3)c12)C1CCC1` (stereo partly drawn) [Example 10.23, 6-(((R)-1-Cyclobutylethyl)amino)-8-(1-methylpiperidin-2-yl)-7-(4-(trifluoromethyl)benzyl)-7H-purine-2-carboxylic acid]: where the note is “Table 10”, the IC50 was determined as 48 nM.
